Measurements: ChEMBL document CHEMBL4392877, “Cytotoxic Pregnane Steroidal Glycosides from Chonemorpha megacalyx” (J Nat Prod, 2019)

Key:
PC-3 = test: Antiproliferative activity against human PC3 cells measured after 48 hrs by MTT assay; assay type: functional, cell-based; conditions: PC-3, 48 h
HepG2 = test: Antiproliferative activity against human HepG2 cells measured after 48 hrs by MTT assay; assay type: functional, cell-based; conditions: HepG2, 48 h
A549 = test: Antiproliferative activity against human A549 cells measured after 48 hrs by MTT assay; assay type: functional, cell-based; conditions: A549, 48 h
WI-38 = test: Cytotoxicity activity against human WI38 cells measured after 48 hrs by MTT assay; assay type: cell-based; conditions: WI-38, 48 h

| Structure (SMILES) | IC50 (PC-3) [µM] | IC50 (HepG2) [µM] | IC50 (A549) [µM] | IC50 (WI-38) [µM] |
| --- | --- | --- | --- | --- |
| CO[C@H]1C[C@H](O[C@H]2CC[C@@]3(C)[C@@H](CC[C@H]4C5=CC(=O)[C@@H]6[C@@H](C)OC(=O)[C@]56CC[C@@H]43)C2)O[C@H](C)[C@H]1O | > 50 | > 50 | > 50 | > 50 |
| C[C@H]1OC(=O)[C@]23CC[C@@H]4[C@@]5(C)CC[C@H](O)CC5=CC[C@@]4(O)[C@@]2(O)CC[C@H]13 | > 50 | > 50 | > 50 | > 50 |
| C[C@H]1OC(=O)[C@]23CC[C@H]4[C@@H](CC[C@H]5C[C@@H](O)CC[C@@]54C)[C@@]2(O)CC[C@H]13 | > 50 | > 50 | > 50 | > 50 |
| CO[C@H]1C[C@@H](O[C@H]2[C@@H](O)C[C@H](O[C@H]3CC[C@@]4(C)[C@@H](CC[C@H]5C6=CC(=O)[C@@H]7[C@@H](C)OC(=O)[C@]67CC[C@@H]54)C3)O[C@@H]2C)O[C@H](C)[C@H]1O | > 50 | > 50 | > 50 | > 50 |
| CO[C@H]1C[C@H](O[C@H]2CC[C@@]3(C)C(=CC[C@H]4C5=CC(=O)[C@@H]6[C@@H](C)OC(=O)[C@]56CC[C@@H]43)C2)O[C@H](C)[C@H]1O[C@@H]1C[C@@H](OC)[C@H](O)[C@@H](C)O1 | 3.6 | 2 | 2.4 | 5.5 |
| C[C@H]1OC(=O)[C@]23CC[C@H]4[C@@H](C(C=O)=C5C[C@@H](O)CC[C@@]54C)[C@@]2(O)CC[C@H]13 | > 50 | > 50 | > 50 | > 50 |
| CO[C@H]1C[C@@H](O[C@@H]2[C@H](O)C[C@H](O[C@H]3CC[C@@]4(C)C(=CC[C@H]5C6=CC(=O)[C@@H]7[C@@H](C)OC(=O)[C@]67CC[C@@H]54)C3)O[C@@H]2C)O[C@H](C)[C@H]1O | > 50 | > 50 | > 50 | > 50 |
| CO[C@H]1C[C@H](O[C@H]2CC[C@@]3(C)C(=CC[C@@H]4[C@@H]3CC[C@]35C(=O)O[C@H](C)[C@H]3CC[C@]45O)C2)O[C@H](C)[C@H]1O[C@@H]1C[C@H](OC)[C@H](O[C@@H]2C[C@@H](OC)[C@H](O)[C@@H](C)O2)[C@@H](C)O1 | > 50 | > 50 | > 50 | > 50 |
| C[C@H]1O[C@@H](O[C@H]2CC[C@@]3(C)[C@@H](CC[C@H]4C5=CC(=O)[C@@H]6[C@@H](C)OC(=O)[C@]56CC[C@@H]43)C2)C[C@H](O)[C@@H]1O | > 50 | > 50 | > 50 | > 50 |
| C[C@H]1O[C@@H](O[C@H]2CC[C@@]3(C)C(=CC[C@H]4C5=CC(=O)[C@@H]6[C@@H](C)OC(=O)[C@]56CC[C@@H]43)C2)C[C@H](O)[C@@H]1O | > 50 | > 50 | > 50 | > 50 |
| CO[C@H]1C[C@H](O[C@H]2CC[C@@]3(C)C(=C(C=O)[C@@H]4[C@@H]3CC[C@]35C(=O)O[C@H](C)[C@H]3CC[C@]45O)C2)O[C@H](C)[C@H]1O | > 50 | > 50 | > 50 | > 50 |
| CO[C@H]1C[C@H](O[C@H]2CC[C@@]3(C)[C@@H](CC[C@H]4C5=CC(=O)[C@@H]6[C@@H](C)OC(=O)[C@]56CC[C@@H]43)C2)O[C@H](C)[C@H]1O[C@H]1C[C@@H](OC)[C@H](O)[C@@H](C)O1 | > 50 | > 50 | > 50 | > 50 |
| CO[C@H]1C[C@@H](O[C@H]2[C@@H](O)C[C@H](O[C@H]3CC[C@@]4(C)C(=CC[C@@H]5[C@@H]4CC[C@]46C(=O)O[C@H](C)[C@H]4CC[C@]56O)C3)O[C@@H]2C)O[C@H](C)[C@H]1O | > 50 | > 50 | > 50 | > 50 |
| CO[C@H]1C[C@@H](O[C@H]2[C@@H](OC)C[C@H](O[C@H]3CC[C@@]4(C)C(=CC[C@@H]5[C@@H]4CC[C@]46C(=O)O[C@H](C)[C@H]4CC[C@]56O)C3)O[C@@H]2C)O[C@H](C)[C@H]1O | > 50 | > 50 | > 50 | > 50 |
| COc1cccc2c1C(=O)c1c(O)c3c(c(O)c1C2=O)C[C@@](O)(C(=O)CO)C[C@@H]3O[C@H]1C[C@H](N)[C@H](O)[C@H](C)O1 [DOXORUBICIN] | 0.5 to 0.8 | 0.5 to 0.8 | 0.5 to 0.8 |  |
